Results published in US20250082659A1, “MANNO-OLIGOSACCHARIDE COMPOSITIONS FOR PATHOGEN CONTROL” (priority 2022, published 2025).

Test system: Streptococcus mutans
Assay: Inhibition of Streptococcus mutans by penicillin with or without MOS (Example 12)
Conditions: BHI media

## penicillin
  inhibition of S. mutans growth: 10%
